Source: patent US20060069132A1, “Azolecarboxamide herbicides” (priority 2004, published 2006)

Experiments:
wild oat = experiment: Test B postemergence herbicide test; format: in vivo, Avena fatua; conditions: postemergence
Summary of the method: (§1)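 Postemergence plants were sprayed with formulated test chemicals at 2 to 18 cm height (1- to 4-leaf stage); paddy species were grown to the 2-leaf stage. After 13 to 15 days in a greenhouse, injury was rated visually against untreated controls on a 0–100 scale (0 = no effect, 100 = complete control).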

barnyardgrass [1] = experiment: Test B pre-/postemergence herbicide test; format: in vivo, Echinochloa crus-galli; conditions: for Barnyardgrass plant response rating: postemergence
Summary of the method: (§2)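 Evaluation is visual, comparing treated with control plants on a scale where 0 means no effect and 100 means full control. Treatments were preemergence, or postemergence on seedlings 2–18 cm tall, and held 13–15 days in the greenhouse.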

blackgrass = experiment: Test B postemergence herbicide test; format: in vivo, Alopecurus myosuroides; conditions: postemergence
Summary of the method: (§3)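 Each value is a visual 0–100 response rating taken against controls 13 to 15 days after treatment in the greenhouse. Plants received formulated chemical postemergence at the 1- to 4-leaf stage or, in flooded paddy, at the 2-leaf stage.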

barnyardgrass [2] = experiment: Test B flooded paddy test; format: in vivo, Echinochloa crus-galli; conditions: 1000 g ai/ha, scale 0 to 100 (0 no effect, 100 complete control)
Summary of the method: as §3

barnyardgrass [3] = experiment: Test A pre-/postemergence herbicide test; format: in vivo, Echinochloa crus-galli
Summary of the method: (§4)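 Sandy loam soil given preemergence directed spray; plants at 2 to 10 cm, one- to two-leaf stage, sprayed to runoff postemergence, compounds in non-phytotoxic solvent with surfactant. Injury rated visually versus untreated controls after about ten greenhouse days, 0 (no effect) to 100 (complete control); dash means not tested.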

corn = experiment: Test B pre-/postemergence herbicide test; format: in vivo, Zea mays; conditions: for Corn plant response rating: postemergence
Summary of the method: (§5)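 Visual rating, 0 (no effect) to 100 (complete control), versus untreated controls after 13–15 d in greenhouse. Pre- and postemergence applications (postemergence plants 2–18 cm, 1–4 leaves); flooded paddy arm at 2-leaf stage. Compounds in non-phytotoxic solvent plus surfactant.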

velvetleaf [4] = experiment: Test A pre-/postemergence herbicide test; format: in vivo, Abutilon theophrasti
Summary of the method: as §4

large crabgrass [5] = experiment: Test A pre-/postemergence herbicide test; format: in vivo, Digitaria sanguinalis
Summary of the method: as §4

giant foxtail [6] = experiment: Test A pre-/postemergence herbicide test; format: in vivo, Setaria faberi
Summary of the method: as §4

giant foxtail [7] = experiment: Test B pre-/postemergence herbicide test; format: in vivo, Setaria faberi; conditions: for Foxtail, Giant plant response rating: postemergence
Summary of the method: as §5

redroot pigweed = experiment: Test A pre-/postemergence herbicide test; format: in vivo, Amaranthus retroflexus
Summary of the method: as §4

large crabgrass [8] = experiment: Test B pre-/postemergence herbicide test; format: in vivo, Digitaria sanguinalis; conditions: for Crabgrass, Large plant response rating: postemergence
Summary of the method: as §5

morningglory [9] = experiment: Test B pre-/postemergence herbicide test; format: in vivo, Ipomoea coccinea; conditions: for Morningglory plant response rating: postemergence
Summary of the method: as §2

velvetleaf [10] = experiment: Test B pre-/postemergence herbicide test; format: in vivo, Abutilon theophrasti; conditions: for Velvetleaf plant response rating: postemergence
Summary of the method: as §5

[11] = system: small flower umbrella sedge; experiment: Test B flooded paddy test; format: in vivo, Cyperus difformis; conditions: 1000 g ai/ha, scale 0 to 100 (0 no effect, 100 complete control)
Summary of the method: as §3

cocklebur = experiment: Test B pre-/postemergence herbicide test; format: in vivo, Xanthium strumarium; conditions: for Cocklebur plant response rating: postemergence
Summary of the method: as §2

Surinam grass = experiment: Test B pre-/postemergence herbicide test; format: in vivo, Urochloa decumbens; conditions: for Surinam Grass plant response rating: postemergence
Summary of the method: as §5

morningglory [12] = experiment: Test A pre-/postemergence herbicide test; format: in vivo, Ipomoea spp.
Summary of the method: as §4

lambsquarters = experiment: Test B pre-/postemergence herbicide test; format: in vivo, Chenopodium album; conditions: for Lambsquarters plant response rating: postemergence
Summary of the method: as §5

rice = experiment: Test B flooded paddy test; format: in vivo, Oryza sativa; conditions: 1000 g ai/ha, scale 0 to 100 (0 no effect, 100 complete control)
Summary of the method: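 Read-out: visual comparison with controls, scored 0 to 100, where 100 means complete control and 0 no effect. Formulated chemicals were applied postemergence to plants 2–18 cm tall (1- to 4-leaf), or to flooded-paddy plants at the 2-leaf stage, then held 13 to 15 days under glass.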

ducksalad = experiment: Test B flooded paddy test; format: in vivo, Heteranthera limosa; conditions: 1000 g ai/ha, scale 0 to 100 (0 no effect, 100 complete control)
Summary of the method: as §3

pigweed = experiment: Test B pre-/postemergence herbicide test; format: in vivo, Amaranthus retroflexus; conditions: for Pigweed plant response rating: postemergence
Summary of the method: as §5

wheat = experiment: Test B postemergence herbicide test; format: in vivo, Triticum aestivum; design: key to Wheat plant response rating: 0 = no effect, 100 = complete control; conditions: postemergence
Summary of the method: as §1

[13] = 125 g ai/ha, visual rating, scale 0 (no effect) to 100 (complete control)
[14] = 500 g ai/ha, scale 0 to 100, 0 is no effect, 100 is complete control
[15] = 125 g ai/ha, 0 is no effect, 100 is complete control, preemergence
[16] = 500 g ai/ha, visual rating, 0 = no effect, 100 = complete control, preemergence
[17] = Postemergence, 500 g ai/ha, 0 to 100 scale, 0 no effect, 100 complete control
[18] = Postemergence, 2000 g ai/ha, 0 to 100 scale, 0 no effect, 100 complete control
[19] = Preemergence, 2000 g ai/ha, visual rating, 0 to 100 scale (0 no effect, 100 complete control)
[20] = preemergence, 500 g ai/ha, visual injury, 0 to 100 scale (0 no effect, 100 complete control)

CCc1nn(C2CCCC2)nc1C(=O)Nc1cccc(C(=O)N(C)C)c1 [Compound 355]
75: Plant response rating, Barnyardgrass (barnyardgrass [3]; [18]) | Plant response rating, Morningglory (morningglory [12]; [18])
20: Blackgrass plant response rating (blackgrass; [14]) | Plant response rating (0 to 100 scale), Corn (corn; [15]) | Crabgrass, Large plant response rating (large crabgrass [5]; [20]) | Foxtail, Giant plant response rating (giant foxtail [6]; [20]) | Foxtail, Giant plant response rating (giant foxtail [7]; [13]) | Surinam Grass plant response rating (Surinam grass; [14]) | Pigweed plant response rating (pigweed; [13]) | Wheat plant response rating (wheat; [14])
25: Velvetleaf plant response rating (velvetleaf [4]; [20])
15: Velvetleaf plant response rating (velvetleaf [4]; [17]) | Morningglory plant response rating (morningglory [12]; [17])
90: Plant response rating, Barnyardgrass (barnyardgrass [1]; [16]) | Plant response rating, Foxtail, Giant (giant foxtail [7]; [16]) | Plant response rating, Pigweed (redroot pigweed; [18])
45: Plant response rating, Foxtail, Giant (giant foxtail [6]; [18])
80: Barnyardgrass plant response rating (barnyardgrass [3]; [19]) | Plant response rating, Surinam Grass (Surinam grass; [16]) | Plant response rating (0 to 100 scale), Lambsquarters (lambsquarters; [15])
10: Barnyardgrass plant response rating (barnyardgrass [1]; [14]) | Crabgrass, Large plant response rating (large crabgrass [5]; [17]) | Foxtail, Giant plant response rating (giant foxtail [6]; [17]) | Plant response rating (0 to 100 scale), Foxtail, Giant (giant foxtail [7]; [15]) | Pigweed plant response rating (redroot pigweed; [20]) | Crabgrass, Large plant response rating (large crabgrass [8]; [13]) | Crabgrass, Large plant response rating (large crabgrass [8]; [14]) | Plant response rating (0 to 100 scale), Morningglory (morningglory [9]; [15]) | Morningglory plant response rating (morningglory [9]; [13]) | Plant response rating, Morningglory (morningglory [9]; [16]) | Plant response rating, Cocklebur (cocklebur; [16]) | Cocklebur plant response rating (cocklebur; [14]) | Surinam Grass plant response rating (Surinam grass; [13]) | Morningglory plant response rating (morningglory [12]; [20]) | Lambsquarters plant response rating (lambsquarters; [13])
65: Plant response rating, Velvetleaf (velvetleaf [4]; [18])
40: Barnyardgrass plant response rating (barnyardgrass [3]; [17]) | Pigweed plant response rating (redroot pigweed; [17]) | Morningglory plant response rating (morningglory [9]; [14]) | Plant response rating (0 to 100 scale), Surinam Grass (Surinam grass; [15]) | Morningglory plant response rating (morningglory [12]; [19])
0: Oat, Wild plant response rating (wild oat; [13]) | Barnyardgrass plant response rating (barnyardgrass [1]; [13]) | Blackgrass plant response rating (blackgrass; [13]) | Corn plant response rating (corn; [13]) | Corn plant response rating (corn; [14]) | Plant response rating (0 to 100 scale), Velvetleaf (velvetleaf [10]; [15]) | Plant response rating (0 to 100 scale), Cocklebur (cocklebur; [15]) | Cocklebur plant response rating (cocklebur; [13]) | Wheat plant response rating (wheat; [13])
60: Plant response rating, Corn (corn; [16]) | Foxtail, Giant plant response rating (giant foxtail [6]; [19])
55: Velvetleaf plant response rating (velvetleaf [4]; [19])
50: Barnyardgrass plant response rating (barnyardgrass [2]) | Barnyardgrass plant response rating (barnyardgrass [3]; [20]) | Crabgrass, Large plant response rating (large crabgrass [5]; [19]) | Pigweed plant response rating (redroot pigweed; [19]) | Velvetleaf plant response rating (velvetleaf [10]; [14]) | Rice plant response rating (rice) | Plant response rating (0 to 100 scale), Pigweed (pigweed; [15]) | Pigweed plant response rating (pigweed; [14])
100: Plant response rating, Crabgrass, Large (large crabgrass [8]; [16]) | Plant response rating, Lambsquarters (lambsquarters; [16]) | Plant response rating, Pigweed (pigweed; [16])
70: Plant response rating (0 to 100 scale), Barnyardgrass (barnyardgrass [1]; [15]) | Plant response rating (0 to 100 scale), Crabgrass, Large (large crabgrass [8]; [15]) | Sedge, Umbrella plant response rating [11] | Lambsquarters plant response rating (lambsquarters; [14]) | Ducksalad plant response rating (ducksalad)
30: Oat, Wild plant response rating (wild oat; [14]) | Plant response rating, Crabgrass, Large (large crabgrass [5]; [18]) | Foxtail, Giant plant response rating (giant foxtail [7]; [14]) | Velvetleaf plant response rating (velvetleaf [10]; [13])
